Experimental data published in publication PMC7465040, “Cytotoxic and Anti-Plasmodial Activities of Stephania dielsiana Y.C. Wu Extracts and the Isolated Compounds” (Molecules, 2020).
Like-named read-outs stand apart in the source and are kept apart here.

How the values were obtained:
HeLa = assay: SRB cell proliferation assay, HeLa; format: cell-based, human; details: for IC50: 72 h, Table 2A, SRB, read-out: IC50 (μM ± SD) HeLa
Experimental: (§1) In vitro anticancer study: The in vitro anti-proliferative tests were carried out as described previously, using aliquots of the cell lines used therein. Briefly, HeLa, MDA-MB-231 and MDA-MB-468, MCF7, and 184B5 and MCF 10A cell lines were purchased from ATCC. The identity of the cell lines presented in this study were verified by short tandem repeat profiling by Genetica DNA Laboratories (www.celllineauthentication.com) (April 8, 2015). MCF10A was grown in DMEM F12 medium supplemented with 0.02 μg/mL epidermal growth factor, 10% FBS, 10 μg/mL insulin and […] hydrocortisone. MDA-MB-468 were grown in DMEM supplemented with 10% FBS and antibiotics cocktail (100 μg/mL streptomycin, 100 units/mL penicillin and 250 ng/mL amphotericin B). SRB cell proliferation assays were carried out as previously described, with some minor modifications. The concentration range for all tested cell lines were from 100–0.39 μg/mL for extracts and 100–0.39 μM for pure compounds. […] All experiments were carried out at least twice.

MDA-MB-468 = assay: SRB cell proliferation assay, MDA-MB-468; format: cell-based, human
Experimental: as §1

[1] = system: chloroquine-susceptible 3D7 P. falciparum strain; assay: In vitro anti-plasmodial assay (HRP2 ELISA), 3D7; format: cell-based, Plasmodium falciparum; details: for IC50: 72 h, HRP2 ELISA, mean of five experiments, read-out: IC50 (μM ± SD) 3D7
Experimental: (§2) Parasites were grown in A-positive human blood (Etablissement Français du Sang, Marseille, France) under controlled atmospheric conditions that consisted of 10% O2, 5% CO2, and 85% N2 at 37 °C with a humidity of 95%.
(§3) In vitro anti-plasmodial assay: The two P. falciparum strains 3D7 and W2 were synchronized twice with sorbitol before use. The clonality of these strains was verified both in our laboratory and in an independent laboratory from the Worldwide Anti-malarial Resistance Network (WWARN) by PCR genotyping of the polymorphic genetic markers msp1 and msp2 and microsatellite loci. The compounds were re-suspended in methanol or DMSO 5% (v/v) and then diluted in methanol to obtain final concentrations ranging from 0.008 to 500 μg/mL (final concentration of 0.5% of methanol or DMSO). […] The plates were incubated for 72 h at 37 °C in controlled atmospheric conditions 5% CO2, 10% O2, and […]. After thawing the plates, haemolysed cultures were homogenized by vortexing the plates. Both the success of the drug susceptibility assay and the appropriate volume of haemolysed culture to use for each assay were determined for each clinical isolate during a preliminary HRP2 ELISA. Both the pre-test and subsequent ELISA assays were performed using a commercial kit (Malaria Ag Celisa, ref KM2159, Cellabs PTY LTD, Brookvale, Australia) according to the manufacturer’s recommendation. The optical density (OD) of each sample was measured with a spectrophotometer (Safire 2, Tecan, Lyon, France). […] The anti-plasmodial in vitro assay was performed five times for each product. The IC50 values represented the mean value calculated from five experiments. According to Hout, a selectivity index (SI) was based on the ratio between anti-parasitic and cytotoxic activities. In the case of our study, a SI was calculated between non-tumorigenic cell line 184B5 and parasites 3D7 or W2 and/or MCF10A and these two parasites.

[2] = system: phosphorylation of histone H3 on Ser-10 in HeLa cells; assay: Western blot, histone H3 Ser-10 phosphorylation; format: cell-based, human; details: 12 h
Experimental: Western Blot analysis: Western blotting was carried out as described previously. The primary antibodies used were from Cell Signaling (Histone H3; p-Histone H3^S10 and Phospho-Aurora A (Thr288)/Aurora B (Thr232)/Aurora C (Thr198)) and used at recommended dilution. For cell synchronization at prometaphase, HeLa cells were treated with 50 ng/mL nocodazole (NZ) (Santa Cruz Biotechnology) for 12 h. All experiments were carried out at least twice.

[3] = system: HeLa, MDA-MB231, MDA-MB-468, MCF7, 184B5 and MCF10A cell lines; assay: SRB cell proliferation assay, whole panel of cell lines; format: cell-based, human; details: Homo sapiens; cancer and non-cancer cell lines; read-out: IC50 values, range over the cell lines examined
Experimental: as §1

MCF 10A = assay: SRB cell proliferation assay, MCF10A non-cancer cells; format: cell-based; details: Homo sapiens, read-out: IC50 (μM ± SD) MCF 10A
Experimental: as §1

MCF7 = assay: SRB cell proliferation assay, MCF7; format: cell-based, human
Experimental: as §1

[4] = system: chloroquine-resistant W2 P. falciparum strain; assay: In vitro anti-plasmodial assay (HRP2 ELISA), W2; format: cell-based, Plasmodium falciparum; details: for IC50: 72 h, HRP2 ELISA, mean of five experiments, read-out: IC50 (μM ± SD) W2
Experimental: as §2, §3

184B5 = assay: SRB cell proliferation assay, 184B5 non-cancer cells; format: cell-based, human; details: for IC50: Homo sapiens, 184B5, read-out: IC50 (μM ± SD) 184B5
Experimental: as §1

MDA-MB-231 = assay: SRB cell proliferation assay, MDA-MB-231; format: cell-based, human
Experimental: as §1

Aurora B = target: T1, Aurora B (Homo sapiens, UniProt Q96GD4); assay: In vitro kinase assay (ADP-Glo), Aurora B; format: biochemical; details: ± standard deviation, n = 2
T1 construct: purchased Promega
Experimental: In vitro kinase assay: The Aurora A and B kinase assays were carried out using the Promega ADP-Glo based Kinase Activity Profiling system. The protocols for the Aurora A/(Myelin Basic Protein (MBP) and Aurora B/MBP assay kits were according to those recommended by the suppliers. The concentration range used was from 20 μM–39.1 nM in 384-well plates. The luminescent output from the kinase assay was read on a Biotek Synergy H4 plate reader.

[5] = system: Plasmodium falciparum 3D7 and W2 strains; assay: In vitro anti-plasmodial assay, both strains; format: cell-based
Experimental: as §2, §3

T1 sequence (Q96GD4 whole entry): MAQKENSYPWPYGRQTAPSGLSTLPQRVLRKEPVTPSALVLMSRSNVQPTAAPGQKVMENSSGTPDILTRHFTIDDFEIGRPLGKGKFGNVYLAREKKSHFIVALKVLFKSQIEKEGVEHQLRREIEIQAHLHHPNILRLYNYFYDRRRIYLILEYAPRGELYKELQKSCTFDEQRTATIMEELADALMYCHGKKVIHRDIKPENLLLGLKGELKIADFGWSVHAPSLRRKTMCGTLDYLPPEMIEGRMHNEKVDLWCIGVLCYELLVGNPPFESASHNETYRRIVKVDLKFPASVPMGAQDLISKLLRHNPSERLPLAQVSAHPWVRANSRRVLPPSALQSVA

COc1cccc2c1C(=O)c1nccc3cc4c(c-2c13)OCO4 [Oxostephanine 1, oxostephanine]
IC50 (HeLa; Homo sapiens, HeLa): 1.73 µM | IC50 (HeLa): 1.76 ± 0.2 µM | Selectivity index (SI) 184B5 versus HeLa (HeLa; Table 2B, non-cancer 184B5 vs cancer HeLa): 0.94 | Selectivity index (SI) MCF10A versus HeLa (HeLa; Table 2B, non-cancer MCF10A vs cancer HeLa): 1.40 | Increase in effectiveness compared with stephanine (3), HeLa (HeLa; ratio of IC50): 2 fold | IC50 (MDA-MB-468; Homo sapiens, MDA-MB-468, Table 2A, SRB, 72 h, read-out: IC50 (μM ± SD) MDA-MB-468): 2.26 ± 0.54 µM | Selectivity index (SI) 184B5 versus MDA-MB-468 (MDA-MB-468; Table 2B, non-cancer 184B5 vs cancer MDA-MB-468): 0.73 | Selectivity index (SI) MCF10A versus MDA-MB-468 (MDA-MB-468; Table 2B, non-cancer MCF10A vs cancer MDA-MB-468): 1.10 | IC50 [1]: 63.9 ± 18.4 µM | IC50 ([1]; Plasmodium falciparum, 3D7, 72 h): 63.9 to 276 µM | SI 3D7 184B5 ([1]; Table 3, selectivity index between 184B5 and parasites 3D7): 0.026 | SI 3D7 MCF10A ([1]; Table 3, selectivity index between MCF10A and parasites 3D7): 0.039 | Phosphorylation of histone H3 on Ser-10 [2]: dramatically downregulated | IC50 [3]: 1.66 to 4.35 µM | IC50 (MCF 10A; Table 2A, SRB, 72 h): 2.49 ± 0.11 µM | IC50 (MCF 10A; Table 3, non-cancer cell line): 2.49 ± 0.11 µM | IC50 (MCF7; Homo sapiens, MCF7, Table 2A, SRB, 72 h, read-out: IC50 (μM ± SD) MCF7): 4.35 ± 1.2 µM | Selectivity index (SI) 184B5 versus MCF7 (MCF7; Table 2B, non-cancer 184B5 vs cancer MCF7): 0.38 | Selectivity index (SI) MCF10A versus MCF7 (MCF7; Table 2B, non-cancer MCF10A vs cancer MCF7): 0.57 | IC50 [4]: 216 ± 31.5 µM | IC50 ([4]; Plasmodium falciparum, W2, 72 h): 216 to 226 µM | SI W2 184B5 ([4]; Table 3, selectivity index between 184B5 and parasites W2): 0.007 | IC50 (184B5; Table 2A, SRB, 72 h): 1.66 ± 0.56 µM | IC50 (184B5; Table 3, non-cancer cell line): 1.66 ± 0.56 µM | Increase in effectiveness compared with stephanine (3), 184B5 (184B5; ratio of IC50): ~4 fold | IC50 (MDA-MB-231; Homo sapiens, MDA-MB-231, Table 2A, SRB, 72 h, read-out: IC50 (μM ± SD) MDA-MB-231): 2.67 ± 0.29 µM | Selectivity index (SI) 184B5 versus MDA-MB-231 (MDA-MB-231; Table 2B, non-cancer 184B5 vs cancer MDA-MB-231): 0.62 | Selectivity index (SI) MCF10A versus MDA-MB-231 (MDA-MB-231; Table 2B, non-cancer MCF10A vs cancer MDA-MB-231): 0.93 | IC50 (Aurora B): 0.952 ± 0.467 µM | Anti-plasmodial activity against both 3D7 and W2 (in words) [5]: not active
